Here are results for 17 compounds from patent EP0339358B1, “Pyrazolopyridine type mevalonolactones” (NISSAN CHEMICAL INDUSTRIES LTD., priority 1988, dated 1989).

The test system of one data set is cholesterol biosynthesis. Nature of the data set: Test C: Inhibition of cholesterol biosynthesis in vivo. Further details: species or system Male Sprague-Dawley rats. To be noted: oral administration of 0.2 mg/kg; relative to the measured value of the control group; serum nonsaponifiable lipids. As to the method:
Male Sprague-Dawley rats weighing about 150 g were fed normal Purina chow diet and water ad libitum, and exposed to 12 hours light/12 hours dark lighting pattern (2:00 PM - 2:00 AM dark) prior to use for in vivo inhibition test of cholesterol biosynthesis. Animals were separated groups consisting of five rats as to be average mean body weight in each groups. Test compounds at dosage of 0.02-0.2 mg/kg body weight (0.4 ml/100 g body weight), were dissolved in water or suspended in 0.5% methyl cellulose and orally administered at 2-3 hours before mid-dark (8:00 PM), while cholesterol biosynthesis reaches to maximum in rats. As control, rats were orally administered only water or vehicle. At 90 minutes after sample administration, rats were injected intraperitoneally with 10 »Ci of [2-¹⁴C]sodium acetate at volume of 0.2 ml per one. 2 Hours later, blood samples were obtained and serum were separated immediately. Total lipids were extracted according to the method of Folch et al. and saponified with EtOH-KOH. Nonsaponifiable lipids were extracted with petroleum ether and radio activity incorporated into nonsaponifiable lipids was counted.
Inhibitory activity was indicated as percent decrease of counts in testing groups (DPM/2 ml serum/2 hours) from that in control group.

Another data set can be described thus: Test D: Acute toxicity. The following applies: mouse, in vivo, po, 1000 mg/kg; orally administered 1,000 mg/kg, 0.5% CMC suspension; mortality after seven days; group of three mice. The procedure: A 0.5% CMC suspension of a test compound was orally administered to ICR male mice (group of three mice). The acute toxicity was determined based on the mortality after seven days. With compound I-5-1, I-5-2, I-5-4, I-5-7, I-5-10, I-5-11, I-5-12, I-5-14 and I-5-15 of the present invention, the mortality was 0% even when they were orally administered in an amount of 1,000 mg/kg, respectively.

In a further data set the target is T1, Hep G2 cells (Homo sapiens, UniProt P04035).
T1 sequence (P04035 1-888): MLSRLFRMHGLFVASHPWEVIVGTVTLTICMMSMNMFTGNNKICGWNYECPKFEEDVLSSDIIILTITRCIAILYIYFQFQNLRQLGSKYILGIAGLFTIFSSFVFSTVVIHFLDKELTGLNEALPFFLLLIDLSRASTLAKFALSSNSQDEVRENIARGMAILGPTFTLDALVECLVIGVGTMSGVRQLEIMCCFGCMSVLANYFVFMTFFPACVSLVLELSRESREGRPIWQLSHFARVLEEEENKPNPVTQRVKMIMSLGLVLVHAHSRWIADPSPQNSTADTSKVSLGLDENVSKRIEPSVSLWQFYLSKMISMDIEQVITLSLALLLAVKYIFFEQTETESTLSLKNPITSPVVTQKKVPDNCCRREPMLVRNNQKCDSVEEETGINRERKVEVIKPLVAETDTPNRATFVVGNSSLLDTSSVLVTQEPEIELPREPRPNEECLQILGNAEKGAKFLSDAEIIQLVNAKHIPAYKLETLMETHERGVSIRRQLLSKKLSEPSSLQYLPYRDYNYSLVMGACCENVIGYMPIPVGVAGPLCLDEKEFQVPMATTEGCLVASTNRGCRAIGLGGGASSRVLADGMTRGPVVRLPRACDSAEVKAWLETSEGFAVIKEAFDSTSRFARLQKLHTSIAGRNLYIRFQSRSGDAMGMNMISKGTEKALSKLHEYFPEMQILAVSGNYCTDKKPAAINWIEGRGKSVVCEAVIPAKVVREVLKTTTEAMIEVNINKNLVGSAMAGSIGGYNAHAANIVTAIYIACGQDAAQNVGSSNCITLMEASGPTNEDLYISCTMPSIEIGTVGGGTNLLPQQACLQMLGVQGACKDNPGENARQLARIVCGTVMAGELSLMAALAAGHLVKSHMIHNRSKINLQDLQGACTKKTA
As to the kind of experiment: Test B-1: Inhibition of cholesterol biosynthesis in culture cells ([2-14C]sodium acetate added at 0 hr after addition of compounds). To be noted: HepG2, concentration of 1.0 x 10⁻⁷ mol/ℓ, read-out: Inhibitory activities %. Type of data set: cell-based. The procedure: Hep G2 cells at over 5th passage were seeded to 12 well plates and incubated with Dulbecco's modified Eagle (DME) medium containing 10% of fetal bovine serum (FBS) at 37°C, 5% CO₂ until cells were confluent for about 7 days. Cells were exposed to the DME medium contaiing 5% of lipoprotein deficient serum (LpDS) prepared by ultracentrifugation method for over 24 hours. Medium was changed to 0.5 ml of fresh 5% LpDS containing DME before assay and 10 »l of test compound solution dissolved in water or DMSO were added. 0.2 »Ci of [2-¹⁴C]sodium acetate (20 »l) was added at 0 hr(B-1) or 4 hrs(B-2) after addition of compounds. After 4 hrs further incubation with [2-¹⁴C]sodium acetate, medium was removed and cells were washed with phosphate buffered saline (PBS) chilled at 4°C. Cells were scraped with rubber policeman and collected to tubes with PBS and digested with 0.2 ml of 0.5 N KOH at 37°C. Aliquot of digestion was used for protein analysis and remaining was saponified with 1 ml of 15% EtOH-KOH at 75°C for 1 hour. Nonsaponifiable lipids were extracted with petroleum ether and ¹⁴C radioactivity was counted. Counts were revised by cell protein and indicated with DPM/mg protein. Inhibitory activity of compounds was indicated with IC50.

For orientation: mortality means the percentage killed. A higher mortality goes with fewer survivors. On to `Cc1nn(C(C)(C)C)c2nc(C(C)C)c(/C=C/C(O)CC(O)CC(=O)O)c(-c3ccc(F)cc3)c12` (stereo not shown) [Compound I-5-7], for which the “percent decrease of counts” value in the data set on cholesterol biosynthesis is recorded as 52%. Further, in “Test D: Acute toxicity”, the mortality at 168 h worked out at 0%.
For `CC(C)(C)n1nc(C2CC2)c2c(-c3ccc(F)cc3)c(/C=C/C(O)CC(O)CC(=O)O)c(C3CC3)nc21` (stereo not shown) [Compound I-5-16], the inhibition at 0.1 µM at Hep G2 cells was determined as 49%.
For `CC(C)(C)n1nc(-c2ccccc2)c2c(-c3ccc(F)cc3)c(/C=C/C(O)CC(O)CC(=O)O)c(C3CC3)nc21` (stereo not shown) [Compound I-5-17], the inhibition at 0.1 µM at Hep G2 cells worked out at 36%.
Still for that read-out and setting: the value for `Cc1c2c(-c3ccc(F)cc3)c(/C=C/C(O)CC(O)CC(=O)O)c(C(C)C)nc2nn1-c1ccccc1` (stereo not shown) [Compound I-5-3] was 36.3%.
In the data set “Test D: Acute toxicity”, `Cc1nn(Cc2ccccc2)c2nc(C(C)C)c(/C=C/C(O)CC(O)CC(=O)O)c(-c3ccc(F)cc3)c12` (stereo not shown) [Compound I-5-10] displayed a mortality at 168 h of 0%.
`CC(C)c1nc2c(cnn2-c2ccccc2)c(-c2ccc(F)cc2)c1/C=C/C(O)CC(O)CC(=O)O` (stereo not shown) [Compound I-5-6]: the inhibition at 0.1 µM on Hep G2 cells came out at 53.3%.
With `Cc1nn(C(C)(C)C)c2nc(C3CC3)c(/C=C/C(O)CC(O)CC(=O)O)c(-c3ccc(F)cc3)c12` (stereo not shown) [Compound I-5-15], in the data set “Test D: Acute toxicity”, the mortality at 168 h came out at 0%.
As to `CC(C)c1nc2c(c(-c3ccc(Cl)cc3)nn2C)c(-c2ccc(F)cc2)c1/C=C/C(O)CC(O)CC(=O)O` (stereo not shown) [Compound I-5-11], in the data set “Test D: Acute toxicity”, the mortality at 168 h worked out at 0%. The inhibition at 0.1 µM at Hep G2 cells worked out at 58.8%.
In the data set “Test D: Acute toxicity”, `Cc1nn(C)c2nc(C(C)C)c(/C=C/C(O)CC(O)CC(=O)O)c(-c3ccc(F)cc3)c12` (stereo not shown) [Compound I-5-1, Sodium (E)-7-[4′-(4˝-fluorophenyl)-1′,3′-dimethyl-6′-(1˝-methylethyl)pyrazolo[3,4-b]pyridin-5#MIN#-yl]-3,5-dihydroxyhept-6-enoate] returned a mortality at 168 h of 0%.
On the same count and under the same terms, with `Cc1nn(-c2ccccc2)c2nc(C(C)C)c(/C=C/C(O)CC(O)CC(=O)O)c(-c3ccc(F)cc3)c12` (stereo not shown) [Compound I-5-2] the figure was 0%.
For the compound `COc1ccc(-n2nc(C)c3c(-c4ccc(F)cc4)c(/C=C/C(O)CC(O)CC(=O)O)c(C(C)C)nc32)cc1` (stereo not shown) [Compound I-5-13], the inhibition at 0.1 µM at Hep G2 cells was 55.5%.
For the compound `CC(C)c1nc2c(c(C3CC3)nn2C)c(-c2ccc(F)cc2)c1/C=C/C(O)CC(O)CC(=O)O` (stereo not shown) [Compound I-5-9], on Hep G2 cells, the inhibition at 0.1 µM is 55.3%.
`Cc1nn(C)c2nc(C3CC3)c(/C=C/C(O)CC(O)CC(=O)O)c(-c3ccc(F)cc3)c12` (stereo not shown) [Compound I-5-5]: in the data set with cholesterol biosynthesis, the “percent decrease of counts” value is reported as 49%. In addition, at Hep G2 cells, the inhibition at 0.1 µM came out at 78.2%.
Consider `CCC(C)C(=O)OC1CC(O)C=C2C=CC(C)C(CCC(O)CC(O)CC(=O)O)C21` (stereo not shown) [CS-514, reference compound], for which, in the data set on cholesterol biosynthesis, the “percent decrease of counts” value is listed as 39%.
Consider `Cn1nc(-c2ccccc2)c2c(-c3ccc(F)cc3)c(/C=C/C(O)CC(O)CC(=O)O)c(C3CC3)nc21` (stereo not shown) [Compound I-5-14], for which the mortality at 168 h in the data set “Test D: Acute toxicity” was found to be 0%.
Turning to `CC(C)c1nc2c(c(-c3ccccc3)nn2C)c(-c2ccc(F)cc2)c1/C=C/C(O)CC(O)CC(=O)O` (stereo not shown) [Compound I-5-4], the “percent decrease of counts” value in the data set with cholesterol biosynthesis turned out to be 53%. In the data set “Test D: Acute toxicity”, this compound showed a mortality at 168 h of 0%.
`CC(C)c1nc2c(c(C3CC3)nn2-c2ccccc2)c(-c2ccc(F)cc2)c1/C=C/C(O)CC(O)CC(=O)O` (stereo not shown) [Compound I-5-12]: the mortality at 168 h in the data set “Test D: Acute toxicity” was determined as 0%. For the same compound, the inhibition at 0.1 µM at Hep G2 cells was 47.3%.
